The source made the active and inactive calls.
Columns and labels:
Type in all cases: cell-based
Conditions in all cases: HEK-293T
[1] = target: T1, Gamma-aminobutyric acid receptor subunit alpha-1 (Homo sapiens) (UniProt P14867); assay: Neurotransmitter activity at GABAA alpha1 receptor expressed in HEK293T cells assessed as release of GABA-induced permeability to chloride ions by photolysis technique
T1 sequence (whole entry): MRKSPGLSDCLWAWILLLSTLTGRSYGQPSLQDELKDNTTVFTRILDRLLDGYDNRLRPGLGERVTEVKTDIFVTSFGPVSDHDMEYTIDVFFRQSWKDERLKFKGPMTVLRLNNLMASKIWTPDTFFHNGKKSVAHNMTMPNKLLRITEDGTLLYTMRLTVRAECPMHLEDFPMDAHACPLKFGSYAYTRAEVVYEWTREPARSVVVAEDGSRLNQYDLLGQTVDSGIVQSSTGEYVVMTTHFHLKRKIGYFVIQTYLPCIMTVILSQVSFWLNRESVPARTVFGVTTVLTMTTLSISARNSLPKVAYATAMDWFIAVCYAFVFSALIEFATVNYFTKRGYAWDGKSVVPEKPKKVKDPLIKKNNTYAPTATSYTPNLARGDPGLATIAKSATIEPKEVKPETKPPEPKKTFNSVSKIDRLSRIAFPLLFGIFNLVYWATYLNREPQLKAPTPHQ

[2] = target: T2, Gamma-aminobutyric acid receptor subunit beta-2 (Homo sapiens) (UniProt P47870); assay: Neurotransmitter activity at GABAA beta2 receptor expressed in HEK293T cells assessed as release of GABA-induced permeability to chloride ions by photolysis technique
T2 sequence (whole entry): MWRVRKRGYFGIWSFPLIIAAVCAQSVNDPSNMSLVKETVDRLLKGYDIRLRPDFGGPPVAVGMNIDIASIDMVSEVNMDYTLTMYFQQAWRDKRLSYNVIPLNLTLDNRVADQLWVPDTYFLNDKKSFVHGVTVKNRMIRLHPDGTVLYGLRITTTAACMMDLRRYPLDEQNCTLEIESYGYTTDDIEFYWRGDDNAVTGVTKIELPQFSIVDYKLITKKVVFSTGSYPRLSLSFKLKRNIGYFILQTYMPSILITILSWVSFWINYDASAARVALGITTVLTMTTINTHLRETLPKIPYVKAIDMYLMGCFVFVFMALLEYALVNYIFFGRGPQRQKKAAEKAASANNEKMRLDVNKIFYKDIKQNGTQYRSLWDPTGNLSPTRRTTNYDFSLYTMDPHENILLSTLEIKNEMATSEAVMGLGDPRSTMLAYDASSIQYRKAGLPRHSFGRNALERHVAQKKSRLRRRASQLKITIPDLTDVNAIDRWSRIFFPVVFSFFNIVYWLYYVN

[3] = target: T3, Gamma-aminobutyric acid receptor subunit delta (Homo sapiens) (UniProt O14764); assay: Neurotransmitter activity at GABAA delta receptor expressed in HEK293T cells assessed as release of GABA-induced membrane permeability to chloride ions by photolysis technique
T3 sequence (whole entry): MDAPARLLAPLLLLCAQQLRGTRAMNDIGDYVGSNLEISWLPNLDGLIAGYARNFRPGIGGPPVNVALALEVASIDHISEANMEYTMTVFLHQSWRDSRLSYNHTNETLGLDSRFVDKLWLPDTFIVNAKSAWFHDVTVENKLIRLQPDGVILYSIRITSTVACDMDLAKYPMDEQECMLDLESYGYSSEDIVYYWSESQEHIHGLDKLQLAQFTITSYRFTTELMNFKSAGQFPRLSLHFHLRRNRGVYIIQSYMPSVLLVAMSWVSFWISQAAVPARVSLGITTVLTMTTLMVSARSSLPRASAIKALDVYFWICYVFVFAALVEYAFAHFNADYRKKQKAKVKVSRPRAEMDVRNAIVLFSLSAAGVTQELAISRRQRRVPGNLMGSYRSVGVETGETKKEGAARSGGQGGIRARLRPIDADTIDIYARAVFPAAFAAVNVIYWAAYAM

Measured: Activity

CCOC(=O)CNC(=O)C(OC(=O)CCCN)c1cc(=O)oc2cc(N(CC)CC)ccc12 (stereo not drawn)
active: all assays above
